{"source": "patent US7157495B2", "about": "“Hexahydrofuro[2,3-B]furan-3-YL-N-{3-[(1,3-benzodioxol-5-ylsulfonyl)(isobutyl)amino]-1-benzyl-2-hydroxypropyl}carbamate as retroviral protease inhibitor” (Tibotec Pharmaceuticals, Ltd., priority 1999, dated 2007)", "key": {"HIV strain r13029": {"system": "HIV strain r13029", "assay": "Antiviral spectrum, protease inhibitor resistant strain", "assay_type": "cell-based", "conditions": "strain r13029; L10I/L, M36I, M46L, L63P, A71V, I84V, N88D, L90M", "description": "(§1) HIV- or mock-infected MT4 cells were incubated for five days in the presence of various concentrations of the inhibitor. At the end of the incubation period, all HIV-infected cells have been killed by the replicating virus in the control cultures in the absence of any inhibitor. Cell viability is measured by measuring the concentration of MTT, a yellow, water soluble tetrazolium dye that is converted to a purple, water insoluble formazan in the mitochondria of living cells only. Upon solubilization of the resulting formazan crystals with isopropanol, the absorbance of the solution is monitored at 540 nm. The values correlate directly to the number of living cells remaining in the culture at the completion of the five day incubation. The inhibitory activity of the compound was monitored on the virus-infected cells and was expressed as IC50 and IC90. These values represent the amount of the compound required to protect 50% and 90%, respectively, of the cells from the cytopathogenic effect of the virus. The toxicity of the compound was measured on the mock-infected cells and was expressed as CC50, which represents the concentration of compound required to inhibit the growth of the cells by 50%. The select index (SI) (ratio CC50/IC50) is an indication of the selectivity of the anti-HIV activity of the inhibitor.\n(§2) Because of the increasing emergence of drug resistant HIV strains, compound 13 and compound 14 were tested for its potency against HIV strains harbouring several mutations. These mutations are associated with resistance to protease inhibitors and result in viruses that show various degrees of phenotypic cross-resistance to five of the currently commercially available drugs (Saquinavir, Ritonavir, Nelfinavir, Indinavir and Amprenavir)."}, "HIV strain r13036": {"system": "HIV strain r13036", "assay": "Antiviral spectrum, protease inhibitor resistant strain", "assay_type": "cell-based", "conditions": "strain r13036; L10I, L63P, A71V, G73S, L90M", "description": "as §1, §2"}, "HIV strain r13025": {"system": "HIV strain r13025", "assay": "Antiviral spectrum, protease inhibitor resistant strain", "assay_type": "cell-based", "conditions": "strain r13025; L10I, M46I, L63P, A71V, I84V", "description": "as §1, §2"}, "HIV strain r13037": {"system": "HIV strain r13037", "assay": "Antiviral spectrum, protease inhibitor resistant strain", "assay_type": "cell-based", "conditions": "strain r13037; L10I, M46I, I54V, L63P, A71T, V77I, V82A, L90M", "description": "as §1, §2"}, "HIV strain r13035": {"system": "HIV strain r13035", "assay": "Antiviral spectrum, protease inhibitor resistant strain", "assay_type": "cell-based", "conditions": "strain r13035; D30N, L63P, V77I, N88D", "description": "as §1, §2"}, "HIV strain r13024": {"system": "HIV strain r13024", "assay": "Antiviral spectrum, protease inhibitor resistant strain", "assay_type": "cell-based", "conditions": "strain r13024; L10I, M36I, L63P, A71V, G73S, I84V, L90M", "description": "as §1, §2"}, "HIV strain r13033": {"system": "HIV strain r13033", "assay": "Antiviral spectrum, protease inhibitor resistant strain", "assay_type": "cell-based", "conditions": "strain r13033; L10I, M46L, I54V, L63P, A71V, V82A, L90M", "description": "as §1, §2"}, "HIV strain r13021": {"system": "HIV strain r13021", "assay": "Antiviral spectrum, protease inhibitor resistant strain", "assay_type": "cell-based", "conditions": "strain r13021; L10I, K20R, L24I, M36I, I54V, L63P, A71V, V82T, I84V", "description": "as §1, §2"}, "HIV strain r13030": {"system": "HIV strain r13030", "assay": "Antiviral spectrum, protease inhibitor resistant strain", "assay_type": "cell-based", "conditions": "strain r13030; L10V/I, M36I, I54V, L63P, A71V, V82T, L90M", "description": "as §1, §2"}, "HIV strain r13027": {"system": "HIV strain r13027", "assay": "Antiviral spectrum, protease inhibitor resistant strain", "assay_type": "cell-based", "conditions": "strain r13027; L10M/I, K20R, M36I, L63P, A71V, G73S, V77I, I84V, L90M", "description": "as §1, §2"}, "HIV strain r13034": {"system": "HIV strain r13034", "assay": "Antiviral spectrum, protease inhibitor resistant strain", "assay_type": "cell-based", "conditions": "strain r13034; L10I, M36I, I54V, L63P, A71V, I84V", "description": "as §1, §2"}, "HIV strain r13031": {"system": "HIV strain r13031", "assay": "Antiviral spectrum, protease inhibitor resistant strain", "assay_type": "cell-based", "conditions": "strain r13031; G48V, I54V, V77I, V82A, L90M/L", "description": "as §1, §2"}, "HIV strain r13022": {"system": "HIV strain r13022", "assay": "Antiviral spectrum, protease inhibitor resistant strain", "assay_type": "cell-based", "conditions": "strain r13022; K20R, M36I, M46I/M, 154V, L63P, A71V/I, V82T, L90M", "description": "as §1, §2"}, "HIV strain r13023": {"system": "HIV strain r13023", "assay": "Antiviral spectrum, protease inhibitor resistant strain", "assay_type": "cell-based", "conditions": "strain r13023; L10I, M36I/M, I54V/I, L63P, A71V, G73S, I84V, L90M", "description": "as §1, §2"}, "HIV": {"system": "HIV", "assay": "Anti-HIV activity in the presence of human serum proteins (HSA or AAG)", "assay_type": "cell-based", "description": "as §1, with “These values represent the amount of the compound required to protect 50% and 90%, respectively, of the cells from the cytopathogenic effect of the virus. The toxicity of the compound was measured on the mock-infected cells and was expressed as CC50, which represents the concentration of compound required to inhibit the growth of the cells by 50%. The select index (SI) (ratio CC50/IC50) is an indication of the selectivity of the anti-HIV activity of the inhibitor.” left out\nHuman serum proteins like albumin (HSA) or alpha-1 acid glycoprotein (AAG) are known to bind many drugs, resulting in a possible decrease in the effectiveness of those compounds. In order to determine whether compound 13 would be adversely effected by this binding, the anti-HIV activity of the compound was measured in the presence of physiological concentrations of HSA or AAG, thus evaluating the effect of the binding of the inhibitor to those proteins."}, "HIV-1 strain LAI": {"system": "HIV-1 strain LAI", "assay": "Cellular anti-HIV assay in MT4 cells (MTT)", "assay_type": "cell-based", "conditions": "for IC50: read-out: IC50", "description": "as §1"}, "[1]": {"assay": "Oral absorption in rats, serum concentration", "assay_type": "in vivo", "conditions": "single oral dose 20 mg/kg in PEG400 by gavage, read-out: Compound concentration in serum", "description": "The oral absorption of compound 13 was then measured in rats to determine bioavailability. The compound was administered by gavage to rats, as a single dose of 20 mg/kg in PEG400. Animals were sacrificed at different time points after administration, whole blood was collected and serum prepared by standard methods. Concentration of the compound in serum was determined by titrating the anti-HIV activity present in the sample according to the procedure described above."}}, "note": "Like-named read-outs stand apart in the source and are kept apart here.", "data": [{"smiles": "CC(C)CN(CC(O)C(Cc1ccccc1)NC(=O)OC1COC2OCCC12)S(=O)(=O)c1ccc2c(c1)OCO2", "note": "(stereo not shown) [Compound 13, hexahydrofuro[2,3-b]furan-3-yl-N-{3-[(1,3-benzodioxol-5-ylsufonyl)(isobutyl)amino]-1-benzyl-2-hydroxypropyl}carbamate]", "values": [{"measurement": "IC50", "setting": "HIV strain r13029", "value": 7, "unit": "nM"}, {"measurement": "IC50", "setting": "HIV strain r13036", "value": 5.4, "unit": "nM"}, {"measurement": "IC50", "setting": "HIV strain r13025", "value": 45.4, "unit": "nM"}, {"measurement": "IC50", "setting": "HIV strain r13037", "value": 0.3, "unit": "nM"}, {"measurement": "IC50", "setting": "HIV strain r13035", "value": 0.3, "unit": "nM"}, {"measurement": "IC50", "setting": "HIV strain r13024", "value": 8.1, "unit": "nM"}, {"measurement": "IC50", "setting": "HIV strain r13033", "value": 1.7, "unit": "nM"}, {"measurement": "IC50", "setting": "HIV strain r13021", "value": 5.5, "unit": "nM"}, {"measurement": "IC50", "setting": "HIV strain r13030", "value": 0.4, "unit": "nM"}, {"measurement": "IC50", "setting": "HIV strain r13027", "value": 7.4, "unit": "nM"}, {"measurement": "IC50", "setting": "HIV strain r13034", "value": 8, "unit": "nM"}, {"measurement": "IC50", "setting": "HIV strain r13031", "value": 0.5, "unit": "nM"}, {"measurement": "IC50", "setting": "HIV strain r13022", "value": 1.7, "unit": "nM"}, {"measurement": "IC50", "setting": "HIV strain r13023", "value": 6.8, "unit": "nM"}, {"measurement": "decrease of the potency", "setting": "HIV; AAG at a concentration of 2 mg/ml", "value": "two to four"}, {"measurement": "effect on the potency", "setting": "HIV; HSA at a concentration of 45 mg/ml", "value": "no effect"}, {"measurement": "SI (ratio CC50/IC50)", "setting": "HIV-1 strain LAI; CC50 on mock-infected MT4 cells / IC50 on HIV-1 LAI", "value": "13,900"}, {"measurement": "IC90", "setting": "HIV-1 strain LAI; Human immunodeficiency virus 1, 120 h, HIV-1 strain LAI, MT4 cells, five days, median value of 12 determinations", "value": 2.4, "unit": "nM"}, {"measurement": "IC50", "setting": "HIV-1 strain LAI; Human immunodeficiency virus 1, MT4, 120 h, HIV-1 strain LAI, MT4 cells, five days", "value": 1.1, "unit": "nM"}, {"measurement": "IC50", "setting": "HIV-1 strain LAI; strain LAI", "value": 1.4, "unit": "nM"}, {"measurement": "concentration at 0 min", "setting": "[1]; rat, serum, po, 20 mg/kg, 0 minutes after administration", "value": 0, "unit": "nM"}, {"measurement": "concentration at 60 min", "setting": "[1]; rat, serum, po, 20 mg/kg, 60 minutes after administration", "value": 1000, "unit": "nM"}, {"measurement": "concentration at 180 min", "setting": "[1]; rat, serum, po, 20 mg/kg, 180 minutes after administration", "value": 687, "unit": "nM"}, {"measurement": "concentration at 300 min", "setting": "[1]; rat, serum, po, 20 mg/kg, 300 minutes after administration", "value": 216, "unit": "nM"}, {"measurement": "concentration at 300 min", "setting": "[1]; 60 minutes after administration", "value": 985.8, "unit": "nM"}]}]}
